# US11510886B2, “Metformin amino acid compounds and methods of using the same” (Laboratorios Silancs S.A. DE C.V., priority 2016, dated 2022)
# Entries after “also recorded” stand apart in the source; their conditions may differ.
# Key:
# [1] = system: L1 adipocytes; experiment: Inflammation markers in L1 adipocytes treated with palmitate (RT-qPCR); type: cell-based, Mice; details: palmitate 500 μM, 10 mM, 24 hours (FIG. 79)
# Protocol: FIG. 79. […] Differentiated L1 adipocytes (cells) were treated for 24 hours with palmitate (500 μM), either in the presence or in the absence of SLN1 or SLN10 (10 mM). Subsequently, the relative expression of inflammation markers was analyzed by RT and qPCR, using HPRT-1 as a normalizer and as a reference for expression levels of non-treated cells (MCP-1 and IL-12), and for those treated only with palmitate (proIL-1β, TNFα, iNOS, IL-6). Briefly, once finished, culture media treatments were collected for subsequent analysis, cells were washed with PBS, and RNA was extracted (illustra RNAspin Mini, GE Healthcare) and retro-transcribed (High Capacity cDNA Reverse Transcription Kit, Life Technologies); then, the genes under study were analyzed by using a quantitative PCR with specific probes (TaqMan® Gene Expression Assays, Life Technologies), estimating the relative quantification (RQ) with the ΔΔ Ct method.
# Palmitate is a saturated fatty acid that simulates an experimental obese state. It can be used as a pro-inflammatory stimulant for cytokines such as proIL-1β, TNFα, INOS, IL-6, MCP-1, and IL-12. Adipocytes cultured in the absence or presence of palmitate were treated with SLN1 or SLN10, and the expression of inflammation markers was determined by quantitative RT-PCR (FIG. 79).
# [2] = system: RAW264.7 macrophages and L1 adipocytes co-cultures; experiment: Glucose consumption in macrophage and adipocyte co-cultures; type: cell-based, Mice; details: 10 mM, 30 hours (FIG. 80)
# [3] = biological target: T1, GPBP (Homo sapiens, UniProt Q9Y5P4); type: binding
# T1 sequence (Q9Y5P4 1-624): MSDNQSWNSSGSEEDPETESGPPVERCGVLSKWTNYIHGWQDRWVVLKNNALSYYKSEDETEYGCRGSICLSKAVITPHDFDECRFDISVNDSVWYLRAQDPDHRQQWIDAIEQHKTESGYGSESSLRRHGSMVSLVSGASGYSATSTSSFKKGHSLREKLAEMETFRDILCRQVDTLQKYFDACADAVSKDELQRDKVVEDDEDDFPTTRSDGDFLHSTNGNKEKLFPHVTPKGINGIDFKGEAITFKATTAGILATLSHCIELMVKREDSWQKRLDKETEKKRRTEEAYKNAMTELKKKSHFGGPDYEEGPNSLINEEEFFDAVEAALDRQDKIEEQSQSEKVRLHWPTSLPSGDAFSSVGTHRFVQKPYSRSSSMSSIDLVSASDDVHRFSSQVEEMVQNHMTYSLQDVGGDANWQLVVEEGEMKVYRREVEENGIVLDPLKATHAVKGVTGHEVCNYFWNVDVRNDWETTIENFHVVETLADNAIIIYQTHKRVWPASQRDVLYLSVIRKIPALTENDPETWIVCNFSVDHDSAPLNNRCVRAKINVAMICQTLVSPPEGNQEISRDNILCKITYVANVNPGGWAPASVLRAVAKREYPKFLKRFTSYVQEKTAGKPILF
# Protocol: GPBP·SLN10n (Equation 2) where
# The equation above was represented with the F data obtained at 26° C.
# [4] = system: GPBP; experiment: GPBP Western blot of treated A549 cells; type: cell-based; details: 10 mM, 3 hours
# Protocol: After the incubation time, cells were washed twice with PBS and lysed in 25 mM Tris-HCl, pH 7.4, 140 mM NaCl, 3 mM KCl, 20 mM NaF, 1 mM PMSF, 10 μg/mL leupeptin, 1% Triton X-100 for 20 min at 4° C. The lysates were centrifuged at 20,000×g for 10 min at 4° C., supernatants were recovered, and protein concentration determined
# Equal amounts of each lysate (40 μg) were analyzed by Western blot, with monoclonal antibodies against GPBP N27 (Fibrostatin SL) and against tubulin (Sigma). Electrophoresis was performed in polyacrylamide gel (6.5%) with SDS, after which electroblotting was carried out to PVDF membrane (Immobilon P, Millipore Merck). After transfer, the membranes were blocked in 5% skim milk in 25 mM Tris-HCl, pH 7.5, 150 mM NaCl, 0.05% Tween-20 (TBST) for 45 min, and then incubated with primary antibodies diluted in blocking solution for 16 hours at 4° C. Thereafter, the membranes were washed with TBST (3×5 minutes) and incubated with secondary antibodies against mouse IgG, conjugated to horseradish peroxidase (HRP) (Sigma) for 1 hours at room temperature while stirring. After further washes with TBST (3×5 minutes), the chemiluminescence disclosure was performed by using the ECL Prime reagent (GE Healthcare) and the image generation system ImageQuant LAS 4000 Mini (GE Healthcare).
# The Western blots disclosure images were analyzed with the ImageJ WCIF program.
# [5] = system: GPBP, LKB1/STRADα/MO25, AMPK, AS160; experiment: In vitro phosphorylation of GPBP with LKB1 complex, AMPK and AS160; details: LKB1 complex without GPBP
# From the text: Reactions were stopped with a reducing loading buffer, analyzed by SDS-PAGE, and electrotransferred to PVDF membrane. Membranes were exposed to autoradiography during the indicated exposition times (exp.). Arrows show the identity of the bands observed in autoradiographs.
# Arrows and lines to the right of the image show the identity of phosphorylated polypeptides. Upper images and those in the middle come from autoradiographs taken at several exposure times.
# To understand this phenomenon at the molecular level, we conducted in vitro phosphorylation experiments with GPBP and the commercial protein complex LKB1/STRADα/MO25 (Millipore) (FIG. 72). STRADα and MO25 are supporters necessary to activate LKB1. […] It cannot be excluded, however, that the simple interaction of kinases activates corresponding autophosphorylation processes.
# To further explain the above results, a more physiological approach in the in vitro assays was performed. A combination of LKB1/STRADα, GPBP, and AMPK/AS160 was used, i.e., each kinase was added with its own substrate except GPBP, which acted as both an enzyme and substrate at the same time (autophosphorylation) (FIG. 73).
substance,measurement,setting,value
metformin lysinate,attenuation of inflammatory response of adipocytes stimulated with palmitate,[1],much more effective
same,glucose consumption of co-cultures,[2],stronger
same,GPBP fluorescence emission at 370 nm (F370),[3],steady reduction (extinction)
same,Ksv (Stern-Volmer constant),[3],108800 M⁻¹
same,n (number of SLN10 molecules bound to GPBP),[3],0.7
same,GPBP polypeptides reactive with N27,"[4]; pH 7.5, listed as SLN10",more abundant in culture extracts treated with SLN10; also recorded: shifts to positions of less molecular weight
same,GPBP polypeptides reactive with N27,[4]; pH 9.3,shifts to positions of less molecular weight
same,LKB1 autophosphorylation and STRADα phosphorylation,[5],trigger a discrete LKB1 autophosphorylation
